Laboratory results taken from paper PMC4920673, “Nitroimidazole carboxamides as antiparasitic agents targeting Giardia lamblia, Entamoeba histolytica and Trichomonas vaginalis” (European Journal of Medicinal Chemistry, 2016).
≈ marks a conversion by molar mass, not a printed value. Like-named read-outs stand apart in the source and are kept apart here.

Assays:
G. lamblia WB (MtzS) = assay: ATP-bioluminescence growth/survival EC50 assay, G. lamblia WB; conditions: for EC50: Giardia duodenalis; for S.I (CC50/EC50): average cytotoxicity against HEK293 and HepG2 / G. lamblia WB activity
Description: (§1) Compounds were screened for antiparasitic activity using an ATP-bioluminescence based assay for cell growth and survival, [24]. […] Viable cell numbers were determined in triplicate using the CellTiter-Glo Luminescent Cell Viability Assay.

E. histolytica HM1:IMSS = assay: ATP-bioluminescence growth/survival EC50 assay, E. histolytica; assay type: cell-based, Entamoeba histolytica; conditions: Entamoeba histolytica
Description: as §1

[1] = system: C. difficile 630 (ATCC BAA-1382); assay: Broth microdilution MIC assay, C. difficile 630; assay type: cell-based, Clostridium difficile; conditions: Clostridioides difficile, ATCCBAA1382
Description: Clostridium difficile strains (630, ATCC BAA-1382 and NAP1/027, ATCC BAA-1803) were maintained as previously described. The minimum inhibition concentration (MIC) was determined according to the CLSI Methods with modifications in broth and inoculum for C. difficile, [25], [26]. Briefly, compounds and control antibiotics were serially diluted two-fold in 96-well plates (Non-binding surface, Corning). […] C. difficile bacteria from BHIS(TA) agar plates were cultured anaerobically in BHIS at 37 °C overnight. […] An antibiotic standard, a positive growth control (no compound) and a sterility control (no bacteria) were included on each 96 well plate. Plates were covered and incubated at 37 °C for 24 h. MICs for each strain were determined as the lowest concentration without visible growth. […] Median MICs are reported with a range given when the median MIC was between two tested concentrations.

[2] = Resazurin cytotoxicity assay, HEK293; assay type: cell-based, Human; conditions: human, 24 h, highest concentration 100 μM, n = 3, read-out: CC50 HEK 293
Description: (§2) Human HEK293 and HepG2 cells were seeded at 3000 and 5000 cells per well in 384-well plates, respectively. Cells were cultured in Dulbecco's modified Eagle's medium with 10% FBS for 24 h at 37 °C, 5% CO2. A dilution series of compounds was added, with the highest concentration of 100 μM. […] After 24 h incubation with the compounds, 5 μM resazurin was added into each well and incubated at 37 °C for 2 h. As a negative control, 1% Triton X-100 was added into the culture media to lyse all of the cells. The fluorescence intensity was read using Polarstar Omega with excitation/emission 560/590 nm. Data were analysed with GraphPad Prism 6 software (La Jolla, California USA) to calculate CC50 values.

[3] = Resazurin cytotoxicity assay, HepG2; assay type: cell-based, Human; conditions: human, 24 h, highest concentration 100 μM, n = 3, read-out: CC50 Hep G2
Description: as §2

[4] = system: C. difficile NAP1/027 (ATCC BAA-1803); assay: Broth microdilution MIC assay, C. difficile NAP1/027; assay type: cell-based, Clostridium difficile; conditions: Clostridioides difficile, ATCCBAA1803; strain NAP1/027
Description: Clostridium difficile strains (630, ATCC BAA-1382 and NAP1/027, ATCC BAA-1803) were maintained as previously described. The minimum inhibition concentration (MIC) was determined according to the CLSI Methods with modifications in broth and inoculum for C. difficile, [25], [26]. Briefly, compounds and control antibiotics were serially diluted two-fold in 96-well plates (Non-binding surface, Corning). The plates were placed in a Coy anaerobic chamber (5% H2, 10% CO2, 85% N2) overnight to reduce the medium. C. difficile bacteria from BHIS(TA) agar plates were cultured anaerobically in BHIS at 37 °C overnight. […]. Compound concentration ranged from 64 to 0.03 μg/mL. An antibiotic standard, a positive growth control (no compound) and a sterility control (no bacteria) were included on each 96 well plate. Plates were covered and incubated at 37 °C for 24 h. MICs for each strain were determined as the lowest concentration without visible growth. Variance between replicates was typically within one 2-fold dilution. Median MICs are reported with a range given when the median MIC was between two tested concentrations.

G. lamblia 713M3 (MtzR) = assay: ATP-bioluminescence growth/survival EC50 assay, G. lamblia 713M3; assay type: cell-based, Giardia lamblia; conditions: Giardia duodenalis
Description: as §1

T. vaginalis F1623 = assay: ATP-bioluminescence growth/survival EC50 assay, T. vaginalis; assay type: cell-based, Trichomonas vaginalis
Description: as §1

[5] = read-out: EC50 G. lamblia WB, MtzS strain WB, minimum n = 3
[6] = read-out: pEC50 ± SE G. lamblia WB, MtzS strain WB (converted)
[7] = read-out: EC50 E. histolytica HM1:IMSS
[8] = read-out: pEC50 ± SE E. histolytica HM1:IMSS (converted)
[9] = strain 630, MtzS, median of n = 4, read-out: MIC C. difficile 630
[10] = read-out: EC50 G. lamblia 713M3, MtzR strain 713M3, minimum n = 3
[11] = read-out: pEC50 ± SE G. lamblia 713M3, MtzR strain 713M3 (converted)
[12] = Trichomonas vaginalis, read-out: EC50 T. vaginalis F1623, MtzS, minimum n = 3
[13] = Trichomonas vaginalis, read-out: pEC50 ± SE T. vaginalis F1623, MtzS (converted)

Row | SMILES | EC50 (G. lamblia WB (MtzS); [5]) [µM] | EC50 (G. lamblia WB (MtzS); [6]) [µM] | S.I (CC50/EC50) (G. lamblia WB (MtzS)) | EC50 (E. histolytica HM1:IMSS; [7]) [µM] | EC50 (E. histolytica HM1:IMSS; [8]) [µM] | MIC [1, 9] [µg/mL] | CC50 at 24 h [2] [µM] | CC50 at 24 h [3] [µM] | MIC [4] [µg/mL] | EC50 (G. lamblia 713M3 (MtzR); [10]) [µM] | EC50 (G. lamblia 713M3 (MtzR); [11]) [µM] | EC50 (T. vaginalis F1623; [12]) [µM] | EC50 (T. vaginalis F1623; [13]) [µM] | EC50 (T. vaginalis F1623; read-out: EC50 T. vaginalis F1623, MtzS, minimum n = 3) [µM] | CC50 at 24 h ([2]; HEK293 cells) [µM] | CC50 at 24 h ([3]; HepG2 cells) [µM] | MIC ([1]; 630 and NAP1/027 strains together or strain not given, read-out: MIC C. difficile) [µg/mL]
1 | NC(=O)c1nc([N+](=O)[O-])cn1Cc1ccc(OC(F)(F)F)cc1 [Compound 13b, 4-nitro-1-(4-(trifluoromethoxy)benzyl)-1H-imidazole-2-carboxamide] | 4.1 | 4.07 | >22 | > 25 | > 25.1 | > 64 | > 100 | > 100 |  |  |  |  |  |  |  |  | 
2 | NNC(=O)c1nc([N+](=O)[O-])cn1Cc1ccc(OC(F)(F)F)cc1 [Compound 14e, 4-nitro-1-(4-(trifluoromethoxy)benzyl)-1H-imidazole-2-carbohydrazide] | 7.5 | 7.59 | >13 | 45 | 44.7 | > 64 | > 100 | > 100 | > 64 |  |  |  |  |  |  |  | 
3 | O=C(c1ncc([N+](=O)[O-])[nH]1)N1CCCC1 [Compound 12i, (5-nitro-1H-imidazol-2-yl)(pyrrolidin-1-yl)methanone] | 3.4 | 3.39 | >29 | 4.3 | 4.27 | 2 (≈ 9.52 µM) |  |  | 2 (≈ 9.52 µM) | 13 | 13.2 | 1.2 to 2.3 | 1.7 | 1.7 | > 100 | > 100 | 
4 | CC(NC(=O)c1ncc([N+](=O)[O-])n1C)c1ccc(F)cc1 (stereo not shown) [Compound 8d, N-(1-(4-fluorophenyl)ethyl)-1-methyl-5-nitro-1H-imidazole-2-carboxamide] | 2.9 | 2.88 | >34 | 10 | 10 | 64 (≈ 219 µM) |  |  | > 64 | 1.9 | 1.86 | 3.8 | 3.8 |  | > 100 | > 100 | 
5 | CN(C)C(=O)c1ncc([N+](=O)[O-])[nH]1 [Compound 12g, N,N-dimethyl-5-nitro-1H-imidazole-2-carboxamide] | 8.3 | 8.32 | >12 | 2.7 | 2.69 | 2 (≈ 10.9 µM) |  |  | 2 (≈ 10.9 µM) | > 20 | > 20 | 2.4 | 2.34 |  | > 100 | > 100 | 
6 | Cn1c([N+](=O)[O-])cnc1C(=O)N1CCCC1 [Compound 8i, (1-methyl-5-nitro-1H-imidazol-2-yl)(pyrrolidin-1-yl)methanone] | 2.9 | 2.88 | >34 | 22 | 21.9 | 64 (≈ 285 µM) |  |  | 64 (≈ 285 µM) | 4 | 3.98 | 1.7 | 1.74 |  | > 100 | > 100 | 
7 | NC(=O)c1nc([N+](=O)[O-])cn1Cc1ccc(F)cc1 [Compound 13a, 1-(4-fluorobenzyl)-4-nitro-1H-imidazole-2-carboxamide] | > 50 | > 50.1 |  | > 50 | > 50.1 | > 64 | > 100 | > 100 |  |  |  |  |  |  |  |  | 
8 | O=C(NC1CC1)c1ncc([N+](=O)[O-])[nH]1 [Compound 12j, N-cyclopropyl-5-nitro-1H-imidazole-2-carboxamide] | 5 | 5.01 | >20 | 5.3 | 5.25 | 1 (≈ 5.1 µM) |  |  | 1 (≈ 5.1 µM) | > 20 | > 20 | 4.4 | 4.37 |  | > 100 | > 100 | 1 (≈ 5.1 µM)
